Tests used:
[1] = Pharmacokinetics IV/PO in mice; format: in vivo, ICR mice; conditions: for AUC(0-t): read-out: AUC0–24h
Experimental: (§1) Pharmacokinetics profile of KMS88009 was obtained using ICR mice, SD rats, beagle dogs and cynomolgus monkeys. Animals were fasted overnight before KMS88009 administration. Mice were divided into 2 groups to receive KMS88009 as a single dose of 2.1 mg/kg intravenous (IV) bolus or 10 mg/kg orally (PO) by gavage. Additionally, KMS88009 was administered orally to estimate the BBB penetration in mice (10, 30 and 100 mg/kg). […] Dog received KMS88009 either as an IV bolus (1 mg/kg) via the great saphenous vein or by oral gavage (4 mg/kg). KMS88009 was administrated to monkeys as an IV bolus (1 mg/kg) via the femoral vein or by oral gavage (4 mg/kg). Vehicle for IV and PO administration was DMSO/tween-20/saline (3.3∶19.8∶[…]). […]. Brain samples were weighed and Daunce-homogenized in 10-fold volume of ice-chilled 4% bovine serum albumin (BSA) solution at room temperature. Plasma and brain homogenates were kept frozen at −70°C until analysis. The levels of KMS88009 were determined by the LC-MS/MS analysis. Pharmacokinetic parameters, time to the maximum concentration (Tmax), maximum concentration (Cmax), elimination half-life (T1/2), volume of distribution (Vd), clearance (Cl) and mean residual time (MRT), of KMS88009 were calculated based on plasma concentration-time data by a non-compartmental method using WinNonlin Version 5.2 (Pharsight, USA). Area under the curve from 0 to 24 hr (AUC0-24h) and area under the curve from 0 to infinity (AUCINF) were obtained by linear and log linear trapezoidal summations.

[2] = Pharmacokinetics IV/PO in monkeys; format: in vivo, cynomolgus monkeys; conditions: for AUC(0-t): read-out: AUC0–24h
Experimental: as §1, with “KMS88009 was administrated to monkeys as an IV bolus (1 mg/kg) via the femoral vein or by oral gavage (4 mg/kg).” left out

[3] = Plasma and brain pharmacokinetics (BBB penetration) after PO in mice; format: in vivo; conditions: for AUC(0-t): read-out: AUC0–24h
Experimental: as §1

[4] = Metabolic stability in liver microsomes; format: in vitro ADME, human
[5] = Partition coefficient (log P), octanol-water titration; format: physicochemical; conditions: 23 ℃
Experimental: Dissociation constant (pKa) and partition coefficient (log P) Dissociation constant (pKa) and partition coefficient (log P) of KMS88009 were measured by a pH-method using GLpKa (Sirius, UK). pKa was measured by titrating KMS88009 solution and calculated from the shape of the titration curve. […] Log P of KMS88009 was calculated by a two-phase acid-base titration in a mixture of water and octanol. Three separate potentiometric titrations of KMS88009 were carried out at 23 ℃ in various octanol-water (0.15 M KCl) mixtures (0.5% to 50% octanol). The initial pH was adjusted to 10.0 with standardized 0.5 M NaOH prior to each titration. Titrations were performed with standardized 0.5 M HCl to pH 1.8. The pKa and log P values were calculated using RefinementPro software (Sirius, UK). Values are expressed as the mean ± SD of 3 independent experiments.

[6] = Stability in PBS buffer (plasma stability study); format: in vitro ADME; conditions: 37 °C
APP/PS1 TG mice = assay: Contextual fear conditioning, prophylactic trial; format: in vivo, mouse; conditions: vehicle TG 15.3%, WT 54.1%
[7] = ICR, plasma, mouse IV 2.1 mg/kg
[8] = ICR, mouse IV 2.1 mg/kg, plasma
[9] = cynomolgus monkey, plasma, monkey IV 0.77 mg/kg
[10] = cynomolgus monkey, plasma, monkey PO 5.6 mg/kg
[11] = cynomolgus monkey, monkey IV 0.77 mg/kg, plasma
[12] = cynomolgus monkey, monkey PO 5.6 mg/kg, plasma
[13] = ICR, mouse, brain, mice PO 10 mg/kg
[14] = ICR, mouse, brain, mice PO 30 mg/kg
[15] = ICR, mouse, brain, mice PO 100 mg/kg
[16] = ICR, mouse, plasma, mice PO 10 mg/kg
[17] = ICR, mouse, plasma, mice PO 30 mg/kg
[18] = ICR, mouse, plasma, mice PO 100 mg/kg

## COc1ccc2cc(C=Cc3ccc(N(C)C)cc3)oc2c1 [KMS88009, 6-methoxy-2-(4-dimethylaminostyryl) benzofuran]
[1]; [7]
  MRT last: 2.9 h
  Vd: 32.1 L/kg
  clearance: 63.3 mL/min/kg
  half-life: 5.9 h
[1]; ICR, plasma, mouse PO 10 mg/kg
  MRT last: 5.5 h
  Tmax: 1 h
  half-life: 4.6 h
[1]; [8]
  AUC(0-inf): 1330 ng·h/mL
  AUC(0-t): 1300 ng·h/mL
[1]; ICR, mouse PO 10 mg/kg, plasma
  AUC(0-inf): 6310 ng·h/mL
  Cmax: 1060 ng/mL
  AUC(0-t): 6160 ng·h/mL
[1]; mouse PO 10 mg/kg vs IV […]
  BA: 99.6%
[2]; [9]
  MRT last: 3.6 ± 0.5 h
  Vd: 4.4 ± 1.1 L/kg
  clearance: 8.33 mL/min/kg
  half-life: 5.8 ± 0.8 h
[2]; [10]
  MRT last: 5.9 ± 0.6 h
  Tmax: 2.7 ± 1.2 h
  half-life: 4.3 ± 0.2 h
[2]; [11]
  AUC(0-inf): 1590 ± 576 ng·h/mL
  AUC(0-t): 1540 ± 550 ng·h/mL
[2]; [12]
  AUC(0-inf): 3920 ± 1480 ng·h/mL
  Cmax: 505 ± 78.3 ng/mL
  AUC(0-t): 3810 ± 1430 ng·h/mL
[2]; monkey PO 5.6 mg/kg vs IV 0.77 mg/kg
  BA: 34.1%
[3]; ICR, mouse, brain, mice, PO, read-out: Level (AUC0–24h) in the brain relative to plasma
  Kp: > 12
[3]; [13]
  Cmax: 6370 ng/g
  Tmax: 2 h
[3]; [14]
  Cmax: 17800 ng/g
  Tmax: 4 h
[3]; [15]
  Cmax: 23300 ng/g
  Tmax: 10 h
[3]; [16]
  Cmax: 744 ng/mL
  Tmax: 1 h
  AUC(0-t): 4570 ng·h/mL
[3]; [17]
  Cmax: 1640 ng/mL
  Tmax: 1 h
  AUC(0-t): 13400 ng·h/mL
[3]; [18]
  Cmax: 2710 ng/mL
  Tmax: 2 h
  AUC(0-t): 30500 ng·h/mL
[3]; brain, mice PO 10 mg/kg
  AUC0–24h: 55395.5 ng·h/g
[3]; brain, mice PO 30 mg/kg
  AUC0–24h: 205268.3 ng·h/g
[3]; brain, mice PO 100 mg/kg
  AUC0–24h: 367538.5 ng·h/g
[4]; human liver microsomes 1 mg/mL, 5 µM, symbol
  Metabolic stability: √ (Mean percent value is confirmed over 90% at 60 min.)
[4]; human liver microsomes, read-out: Remaining % of parent molecule at 60 min.
  remaining at 1 h, 5 µM: 92.7 ± 0.4%
[5]
  logP: 2.4 ± 0.19
[6]; 0.5 hr
  Parent compound remaining: 99.1%
[6]; 1 hr
  Parent compound remaining: 88.6%
[6]; 2 hr
  Parent compound remaining: 100.0%
[6]; 6 hr
  Parent compound remaining: 100.0%
APP/PS1 TG mice; PO 10 mg/kg/day
  freezing responses (contextual fear conditioning): 42.3%
APP/PS1 TG mice; PO 30 mg/kg/day
  freezing responses (contextual fear conditioning): 48.6%
APP/PS1 TG mice; PO 100 mg/kg/day
  freezing responses (contextual fear conditioning): 49.3%

— paper PMC3997483, “Aminostyrylbenzofuran Directly Reduces Oligomeric Amyloid-β and Reverses Cognitive Deficits in Alzheimer Transgenic Mice” (PLoS ONE, 2014)
